Reference: the supplement of paper PMC11451515

Tests used:
Settings in all cases: 48 h
NOMO1 [1] = assay: cell viability relative to DMSO control; higher = less cytotoxic
Method in brief: (§1)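 Viability, reported as a per-plate percentage of DMSO wells with cell-free wells as background, came from CellTiter-Glo One luminescence. Reading took place after 48 h at 37°C. Before that, NOMO1 or SEM (500 cells/well) or P12-Ichikawa (1000 cells/well) leukemia cells, adapted for at least four passages in each medium, were seeded in 1536-well plates (5 μl) and pin-dosed with library compounds in DMSO, 47 μM to 0.79 nM over 11 threefold points.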

SEM cells [2] = assay: as above
Method in brief: as §1

P12-Ichikawa [3] = assay: as above
Method in brief: as §1

NOMO1 [4] = assay: AUC of viability dose-response curve (% viability x log10 dose units); higher = less sensitive
Method in brief: (§2)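 Leukemia cells adapted to each medium were seeded in 1536-well plates (500 or 1000 cells/well). They were dosed with library compounds in DMSO at 11 threefold doses, 47 μM to 0.79 nM, for 48 h at 37°C. CellTiter-Glo One luminescence was normalised per plate to DMSO and cell-free wells. Area under the curve was integrated by trapezoidal rule over log10 doses on a four-parameter log-logistic fit; curves exceeding full viability were scaled and curves failing quality control removed.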

SEM cells [5] = assay: as above
Method in brief: as §2

P12-Ichikawa [6] = assay: as above
Method in brief: as §2

O=C(O)CCC1CCC(c2cc(F)ccc2F)([S+](=O)([O-])c2ccc(Cl)cc2)CC1 (stereo not given)
cell viability [%]
Settings | NOMO1 [1] | P12-Ichikawa [3] | SEM cells [2]
HPLM + 10% dialyzed FBS, 0.000781 µM | 98.6 | 105 | 105
HPLM + 10% dialyzed FBS, 0.00234 µM | 117 | 114 | 93.5
HPLM + 10% dialyzed FBS, 0.00702 µM | 137 | 117 | 110
HPLM + 10% dialyzed FBS, 0.0211 µM | 124 | 115 | 114
HPLM + 10% dialyzed FBS, 0.0632 µM | 140 | 114 | 115
HPLM + 10% dialyzed FBS, 0.19 µM | 139 | 121 | 115
HPLM + 10% dialyzed FBS, 0.569 µM | 146 | 128 | 109
HPLM + 10% dialyzed FBS, 1.71 µM | 85.2 | 118 | 117
HPLM + 10% dialyzed FBS, 5.12 µM | 30.5 | 86.7 | 119
HPLM + 10% dialyzed FBS, 15.4 µM | 35.4 | 21.5 | 125
HPLM + 10% dialyzed FBS, 46.1 µM | 34 | 9.14 | 116
RPMI 5 mM glucose + 10% FBS, 0.000781 µM | 122 | 99 | 104
RPMI 5 mM glucose + 10% FBS, 0.00234 µM | 115 | 125 | 110
RPMI 5 mM glucose + 10% FBS, 0.00702 µM | 125 | 117 | 117
RPMI 5 mM glucose + 10% FBS, 0.0211 µM | 124 | 126 | 126
RPMI 5 mM glucose + 10% FBS, 0.0632 µM | 117 | 118 | 112
RPMI 5 mM glucose + 10% FBS, 0.19 µM | 146 | 116 | 114
RPMI 5 mM glucose + 10% FBS, 0.569 µM | 126 | 128 | 114
RPMI 5 mM glucose + 10% FBS, 1.71 µM | 64 | 140 | 104
RPMI 5 mM glucose + 10% FBS, 5.12 µM | 25.2 | 109 | 110
RPMI 5 mM glucose + 10% FBS, 15.4 µM | 21.7 | 24.3 | 113
RPMI 5 mM glucose + 10% FBS, 46.1 µM | 23.8 | 9.78 | 81.6
RPMI 5 mM glucose + 10% dialyzed FBS, 0.000781 µM | 109 | 103 | 103
RPMI 5 mM glucose + 10% dialyzed FBS, 0.00234 µM | 137 | 117 | 105
RPMI 5 mM glucose + 10% dialyzed FBS, 0.00702 µM | 104 | 123 | 115
RPMI 5 mM glucose + 10% dialyzed FBS, 0.0211 µM | 129 | 123 | 122
RPMI 5 mM glucose + 10% dialyzed FBS, 0.0632 µM | 126 | 123 | 122
RPMI 5 mM glucose + 10% dialyzed FBS, 0.19 µM | 137 | 118 | 128
RPMI 5 mM glucose + 10% dialyzed FBS, 0.569 µM | 125 | 124 | 109
RPMI 5 mM glucose + 10% dialyzed FBS, 1.71 µM | 102 | 125 | 116
RPMI 5 mM glucose + 10% dialyzed FBS, 5.12 µM | 28.5 | 112 | 123
RPMI 5 mM glucose + 10% dialyzed FBS, 15.4 µM | 33 | 56.7 | 111
RPMI 5 mM glucose + 10% dialyzed FBS, 46.1 µM | 28.2 | 13.2 | 106

AUC of viability dose-response curve
Settings | NOMO1 [4] | P12-Ichikawa [6] | SEM cells [5]
HPLM + 10% dialyzed FBS | 373 | 403 | 464
RPMI 5 mM glucose + 10% FBS | 357 | 412 | 470
RPMI 5 mM glucose + 10% dialyzed FBS | 378 | 428 | 468

N[S+]([O-])(=O)C1=CC=C(NC/2=C/C(=O)C3=CC=CC=C3C2=O)C=C1
cell viability [%]
Settings | NOMO1 [1] | P12-Ichikawa [3] | SEM cells [2]
HPLM + 10% dialyzed FBS, 0.000781 µM | 100 | 102 | 97.3
HPLM + 10% dialyzed FBS, 0.00234 µM | 126 | 115 | 106
HPLM + 10% dialyzed FBS, 0.00702 µM | 111 | 119 | 109
HPLM + 10% dialyzed FBS, 0.0211 µM | 132 | 114 | 108
HPLM + 10% dialyzed FBS, 0.0632 µM | 119 | 129 | 115
HPLM + 10% dialyzed FBS, 0.19 µM | 121 | 120 | 110
HPLM + 10% dialyzed FBS, 0.569 µM | 134 | 123 | 123
HPLM + 10% dialyzed FBS, 1.71 µM | 111 | 118 | 110
HPLM + 10% dialyzed FBS, 5.12 µM | 93.2 | 117 | 82.6
HPLM + 10% dialyzed FBS, 15.4 µM | 100 | 118 | 97.8
HPLM + 10% dialyzed FBS, 46.1 µM | 85.4 | 115 | 71.3
RPMI 5 mM glucose + 10% FBS, 0.000781 µM | 121 | 110 | 96.2
RPMI 5 mM glucose + 10% FBS, 0.00234 µM | 123 | 112 | 103
RPMI 5 mM glucose + 10% FBS, 0.00702 µM | 131 | 108 | 99.4
RPMI 5 mM glucose + 10% FBS, 0.0211 µM | 151 | 112 | 98.6
RPMI 5 mM glucose + 10% FBS, 0.0632 µM | 131 | 112 | 87.5
RPMI 5 mM glucose + 10% FBS, 0.19 µM | 147 | 124 | 83.9
RPMI 5 mM glucose + 10% FBS, 0.569 µM | 129 | 125 | 92.2
RPMI 5 mM glucose + 10% FBS, 1.71 µM | 132 | 126 | 92.5
RPMI 5 mM glucose + 10% FBS, 5.12 µM | 126 | 111 | 53.4
RPMI 5 mM glucose + 10% FBS, 15.4 µM | 123 | 124 | 57.2
RPMI 5 mM glucose + 10% FBS, 46.1 µM | 102 | 100 | 46.3
RPMI 5 mM glucose + 10% dialyzed FBS, 0.000781 µM | – | 107 | 122
RPMI 5 mM glucose + 10% dialyzed FBS, 0.00234 µM | – | 114 | 74.4
RPMI 5 mM glucose + 10% dialyzed FBS, 0.00702 µM | – | 113 | 108
RPMI 5 mM glucose + 10% dialyzed FBS, 0.0211 µM | – | 120 | 105
RPMI 5 mM glucose + 10% dialyzed FBS, 0.0632 µM | – | 117 | 106
RPMI 5 mM glucose + 10% dialyzed FBS, 0.19 µM | – | 121 | 120
RPMI 5 mM glucose + 10% dialyzed FBS, 0.569 µM | – | 128 | 103
RPMI 5 mM glucose + 10% dialyzed FBS, 1.71 µM | – | 124 | 108
RPMI 5 mM glucose + 10% dialyzed FBS, 5.12 µM | – | 121 | 71.3
RPMI 5 mM glucose + 10% dialyzed FBS, 15.4 µM | – | 131 | 85.3
RPMI 5 mM glucose + 10% dialyzed FBS, 46.1 µM | – | 105 | 50.7

AUC of viability dose-response curve
Settings | NOMO1 [4] | P12-Ichikawa [6] | SEM cells [5]
HPLM + 10% dialyzed FBS | 446 | 464 | 448
RPMI 5 mM glucose + 10% FBS | 465 | 467 | 399
RPMI 5 mM glucose + 10% dialyzed FBS | 461 | 459 | 436
